Read-outs that look alike come from different tables or passages of the source.
Legend:
[1] = in comparison to a 15 mg dose of hydrocodone
Source text: In certain preferred embodiments, the opioid agonist is hydrocodone.

[2] = milligram-for-milligram basis; cited from earlier work
[3] = TRNA therapy with topical apomorphine, onset of clinical effect; format: in vivo, human
[4] = tested on: human patients
[5] = tested on: human patients; assay: Efficacy of topical opioid analgesic formulations in human patients (Example 6); format: in vivo
Source text: The efficacy of topical opioid analgesic formulations was studied in human patients.

[6] = tested on: patients; assay: Compounded topical morphine sulfate and tramadol, inventor's clinical experience (nuchal and peripheral application); conditions: patients tapering off oral narcotics, nuchal delivery as only pain therapy
Description: The dose for MS has been 2.5-5.0 mg and for tramadol, 40-80 mg, divided over two to three locations, as described herein.
With activation of opioid receptors potentially providing improved pain relief, MS and tramadol were compounded for topical administration.

[7] = compounded morphine in cold cream applied locally to skin at areas of pain; cited from earlier work
[8] = cited from earlier work
[9] = tested on: patient; conditions: 1 mg twice daily
[10] = tested on: patients; conditions: cited from earlier work
[11] = case 4, acute lumbar sprain, 1.0 mg application
[12] = Patient C, 40 mg topical divided between knee and lower back
[13] = Patient E, 40 mg topical to neck and back in divided dose
[14] = Patient F, 40 mg topical to nuchal region and lower back in divided doses
[15] = Patient H, 40 mg topical in 1 ml Lipoderm

COc1ccc2c3c1O[C@H]1[C@@H](O)C=C[C@H]4[C@@H](C2)N(C)CC[C@@]341 [Codeine]
Calculated Dose (mg), equianalgesic [1]: 90.0 mg

CC(=O)Oc1ccc2c3c1O[C@H]1[C@@H](OC(C)=O)C=C[C@H]4[C@@H](C2)N(C)CC[C@@]341 [Heroin, diacetylmorphine]
potency relative to morphine [2]: 1.5-2 times

COc1ccc2c3c1O[C@H]1C(=O)CC[C@H]4[C@@H](C2)N(C)CC[C@]314 [Hydrocodone]
Calculated Dose (mg), equianalgesic [1]: 15.0 mg

CN1CC[C@]23CCCC[C@H]2[C@H]1Cc1ccc(O)cc13 [Levorphanol]
Calculated Dose (mg), equianalgesic [1]: 1.8 mg

CCC(=O)C(CC(C)N(C)C)(c1ccccc1)c1ccccc1 (stereo not drawn) [Methadone]
Calculated Dose (mg), equianalgesic [1]: 9.0 mg

COc1ccc2c3c1O[C@H]1C(=O)CC[C@@]4(O)[C@@H](C2)N(C)CC[C@]314 [Oxycodone]
Calculated Dose (mg), equianalgesic [1]: 13.5 mg

CN1CCc2cccc3c2[C@H]1Cc1ccc(O)c(O)c1-3 [apomorphine]
onset of clinical effect [3]: 10 to 15 min | time to pain relief, all patients ([4]; Example 3, cream of Example 1 over nerve entrapment areas or affected muscle): 5 to 10 min | outcome, carpal tunnel syndrome ([4]; case 1, pregnant person, 0.5 mg at the wrist): without recurrent symptoms | pain relief ([4]; case 2, additional 0.5 mg after 24 hours): complete pain relief | pain relief ([4]; case 2, tarsal tunnel syndrome/plantar fasciitis, runner, 0.5 mg application): 90% | outcome, pain ([4]; case 3, hamstring injury, 0.5 mg): complete resolution of pain without recurrence | time to resolution of pain ([4]; case 3, hamstring injury, 0.5 mg to muscle and insertion site): 5 to 10 min | pain and spasm relief ([4]; case 4 (person one), acute lumbar sprain, 1.0 mg application): 80-90% | duration of relief [4, 11]: lasted overnight | time to pain and spasm relief [4, 11]: 10 to 15 min | outcome, acute lumbar sprain from lifting ([4]; case 5, 0.5 mg application and heating pad): without recurrent symptoms | outcome, foot pain from stress fractures and tarsal tunnel ([4]; case 6, marathon runner, 0.5 mg to base of toe and 0.5 to tarsal tunnel): experienced pain relief | tolerability of increased single dose ([4]; single topical dose increased to 2 mg, peripheral application): without deleterious effects

CN1CC[C@]23c4c5ccc(O)c4O[C@H]2[C@@H](O)C=C[C@H]3[C@H]1C5.O=S(=O)(O)O [morphine sulfate]
further reduction in pain from baseline ([5]; Patient G, 3 mg topical in Pass-gel to the nuchal region, on oral oxycodone): 20-30% | reduction in baseline back and hip pain ([5]; Patient I, topical 2.5 mg in 0.5 ml Pass-gel, despite regular narcotics): 15-20% | time to reduction in pain ([5]; Patient K, topical 2.5 mg to the nuchal region): 10 to 15 min | headache and neck pain after treatment ([5]; Patient K, topical 2.5 mg to the nuchal region, from "severe"): 0-1 of 10 | time to reduction in pain ([5]; Patient L, topical 2.5 mg to the nuchal region): 8 to 10 min | pain after treatment ([5]; Patient L, topical 2.5 mg to the nuchal region, from about 8 of 10): about 4 of 10 | narcotic withdrawal symptoms [6]: no significant narcotic withdrawal symptoms

CN1CC[C@]23c4c5ccc(O)c4O[C@H]2[C@@H](O)C=C[C@H]3[C@H]1C5 [morphine]
morphine levels in blood or urine [7]: not detected | additional pain relief ([5]; Patient D, topical 2.5 mg in 0.5 ml Pass-gel, despite regular hydromorphone): 20-30%

Clc1ccc2nsnc2c1NC1=NCCN1 [tizanidine]
absorption after oral administration [8]: completely absorbed | state of spastic upper extremity ([9]; after a few months of continued therapy): essentially back to normal | state of spastic upper extremity ([9]; within several weeks): visible improvement

COc1cccc(C2(O)CCCCC2CN(C)C)c1 (stereo not drawn) [tramadol]
onset of withdrawal after the last dose ([10]; in most cases): 12 to 20 h | duration of acute withdrawal symptoms ([10]; versus three or four days for other codeine analogues): seven days or more | pain relief ([5]; Patient A, topical in Lipoderm, 40 mg tramadol hydrochloride dose twice daily, nuchal region and back): Pain relief is achieved | pain in the neck after treatment ([5]; Patient B, 15 minutes after 20 mg topical to nuchal region and lower back, baseline about 7-8/10): about 0 /10 | pain in the back and legs after treatment ([5]; Patient B, 15 minutes after 20 mg topical to nuchal region and lower back, baseline about 7/10): about 2 /10 | benefit of oral tablets in the past ([5]; Patient B, tramadol (Ultram) tablets): without significant benefit | eventual pain relief [5, 12]: 80-90% | time to initial reduction in pain [5, 12]: ≤ 15 min | initial reduction in pain ([5]; Patient C, right knee pain, 40 mg topical divided between knee (popliteal fossa) and lower back): ~50% | outcome ([5]; Patient D, 40 mg topical at the nuchal region): with benefit | reduction in pain [5, 13]: 70-80% | time to reduction in pain [5, 13]: 10 to 15 min | pain relief [5, 14]: ≥ 70% | time to pain relief [5, 14]: ≤ 15 min | duration of pain relief [5, 15]: ~48 h | time to pain relief [5, 15]: ≤ 15 min | pain relief ([5]; Patient H, 40 mg topical in 1 ml Lipoderm to neck and back in divided doses): greater than 80% | outcome, pain (trigeminal neuralgia and cervical sprain) ([5]; Patient J, topical 40 mg in 1 ml Lipoderm to the nuchal region): dramatic improvement in pain | narcotic withdrawal symptoms [6]: no significant narcotic withdrawal symptoms

Meperidine
Calculated Dose (mg), equianalgesic [1]: 135.0 mg
